Columns and labels:
Assay type in all cases: in vivo, Wistar rats
[1] = test system: STZ induced diabetic rats; experiment: Study No 2: blood glucose in STZ induced diabetic rats (HCQ with vildagliptin and saxagliptin); conditions: oral
Protocol: In this experiment 96 Wistar rats weighing 150-200 g of either sex were divided randomly into 16 groups consisting of 6 rats each. The study drugs were dissolved in water/suspended in vehicle [0.1% w/v suspension of Tween 80 and carboxymethylcellulose (CMC) in water] and administered orally for 28 days. Group 1 (normal vehicle control) consisted of normal rats that neither received Streptozotocin (STZ) nor any test drug; Group 2 served as Streptozotocin induced diabetic control [Diabetes was induced in rats by single administration of Streptozotocin (55 mg/kg/i.p.) dissolved in 0.1 M-citrate buffer, pH 4.5]. Forty-eight hours later, blood samples were collected and glucose levels were determined to confirm the development of diabetes. Only animals showing hyperglycaemia (blood glucose levels>250 mg/dl) were considered as diabetic and received vehicle orally; Group 3 was diabetic rats treated with hydroxychloroquine (HCQ) (22.5 mg/kg); Group 4 was diabetic rats treated with HCQ (45 mg/kg), Group 5 was diabetic rats treated with vildagliptin (VG) 6 mg/kg; Group 6 was diabetic rats treated with VG 12 mg/kg; Group 7 was diabetic rats treated with HCQ 22.5 mg/kg+VG 12 mg/kg and Group 8 was diabetic rats treated with combination of HCQ 45 mg/kg and VG 6 mg/kg; Group 9 was diabetic rats treated with saxagliptin (SG) 0.3 mg/kg; Group 10 was diabetic rats treated with Saxagliptin (SG) 0.6 mg/kg; Group 11 was diabetic rats treated with combination of HCQ 45 mg/kg+SG 0.3 mg/kg; Group 12 was diabetic rats treated with combination of HCQ 22.5 mg/kg+SG 0.6 mg/kg; Group 13 was diabetic rats treated with combination of HCQ 22.5 mg/kg and VG 6 mg/kg; Group 14 was diabetic rats treated with combination of HCQ 45 mg/kg and VG 12 mg/kg; Group 15 was diabetic rats treated with combination of HCQ 22.5 mg/kg+SG 0.3 mg/kg; Group 16 was diabetic rats treated with combination of HCQ 45 mg/kg+SG 0.6 mg/kg.
Blood glucose level was measured in normal and experimental rats at 0, 7th, 14th, 21st and 28th day of administration.

[2] = test system: STZ-induced diabetic rats; experiment: Study No 2: biochemical parameters in STZ-induced diabetic rats; conditions: after 28 days, oral
[3] = test system: STZ-induced diabetic rats; experiment: Study No 2: body weight, water intake and food intake in STZ-induced diabetic rats; conditions: oral
[4] = HCQ 22.5, VG 6, SG 0.3 mg/kg alone, HCQ+VG 22.5+6, HCQ+SG 22.5+0.3 mg/kg/day
[5] = HCQ 45, VG 12, SG 0.6 mg/kg alone, HCQ+VG 45+12, HCQ+SG 45+0.6 mg/kg/day
[6] = Day 0, HCQ 22.5, VG 6, SG 0.3 mg/kg alone, HCQ+VG 22.5+6, HCQ+SG 22.5+0.3 mg/kg/day
[7] = Day 0, HCQ 45, VG 12, SG 0.6 mg/kg alone, HCQ+VG 45+12, HCQ+SG 45+0.6 mg/kg/day
[8] = Day 7, HCQ 22.5, VG 6, SG 0.3 mg/kg alone, HCQ+VG 22.5+6, HCQ+SG 22.5+0.3 mg/kg/day
[9] = Day 7, HCQ 45, VG 12, SG 0.6 mg/kg alone, HCQ+VG 45+12, HCQ+SG 45+0.6 mg/kg/day
[10] = Day 14, HCQ 22.5, VG 6, SG 0.3 mg/kg alone, HCQ+VG 22.5+6, HCQ+SG 22.5+0.3 mg/kg/day
[11] = Day 14, HCQ 45, VG 12, SG 0.6 mg/kg alone, HCQ+VG 45+12, HCQ+SG 45+0.6 mg/kg/day
[12] = Day 21, HCQ 22.5, VG 6, SG 0.3 mg/kg alone, HCQ+VG 22.5+6, HCQ+SG 22.5+0.3 mg/kg/day
[13] = Day 21, HCQ 45, VG 12, SG 0.6 mg/kg alone, HCQ+VG 45+12, HCQ+SG 45+0.6 mg/kg/day
[14] = Day 28, HCQ 22.5, VG 6, SG 0.3 mg/kg alone, HCQ+VG 22.5+6, HCQ+SG 22.5+0.3 mg/kg/day
[15] = Day 28, HCQ 45, VG 12, SG 0.6 mg/kg alone, HCQ+VG 45+12, HCQ+SG 45+0.6 mg/kg/day

N#C[C@@H]1C[C@@H]2C[C@@H]2N1C(=O)[C@@H](N)C12CC3CC(CC(O)(C3)C1)C2 [SG, Saxagliptin]
Plasma glucose concentration ([1]; Day 0, HCQ 22.5, VG 6, SG 0.3 mg/kg alone, HCQ+VG 22.5+6, HCQ+SG 22.5+0.3 mg/kg): 288.83 ± 26.19 mg/dL | Plasma glucose concentration ([1]; Day 0, HCQ 45, VG 12, SG 0.6 mg/kg alone, HCQ+VG 45+12, HCQ+SG 45+0.6 mg/kg): 285.5 ± 33.58 mg/dL | Plasma glucose concentration ([1]; Day 7, HCQ 22.5, VG 6, SG 0.3 mg/kg alone, HCQ+VG 22.5+6, HCQ+SG 22.5+0.3 mg/kg): 246.5 ± 4.89 mg/dL | Plasma glucose concentration ([1]; Day 7, HCQ 45, VG 12, SG 0.6 mg/kg alone, HCQ+VG 45+12, HCQ+SG 45+0.6 mg/kg): 146.5 ± 4.89 mg/dL | Plasma glucose concentration ([1]; Day 14, HCQ 22.5, VG 6, SG 0.3 mg/kg alone, HCQ+VG 22.5+6, HCQ+SG 22.5+0.3 mg/kg): 226.33 ± 12.36 mg/dL | Plasma glucose concentration ([1]; Day 14, HCQ 45, VG 12, SG 0.6 mg/kg alone, HCQ+VG 45+12, HCQ+SG 45+0.6 mg/kg): 138.5 ± 7.23 mg/dL | Plasma glucose concentration ([1]; Day 21, HCQ 22.5, VG 6, SG 0.3 mg/kg alone, HCQ+VG 22.5+6, HCQ+SG 22.5+0.3 mg/kg): 194 ± 38.79 mg/dL | Plasma glucose concentration ([1]; Day 21, HCQ 45, VG 12, SG 0.6 mg/kg alone, HCQ+VG 45+12, HCQ+SG 45+0.6 mg/kg): 137.5 ± 9.44 mg/dL | Plasma glucose concentration ([1]; Day 28, HCQ 22.5, VG 6, SG 0.3 mg/kg alone, HCQ+VG 22.5+6, HCQ+SG 22.5+0.3 mg/kg): 194.17 ± 17.17 mg/dL | Plasma glucose concentration ([1]; Day 28, HCQ 45, VG 12, SG 0.6 mg/kg alone, HCQ+VG 45+12, HCQ+SG 45+0.6 mg/kg): 161 ± 9.67 mg/dL | Creatinine [2, 4]: 1.89 ± 0.23 mg/dL | HbA1c [2, 4]: 10.79 ± 1.05 % | Total Protein [2, 4]: 6.55 ± 0.37 gm/dl | Urea [2, 4]: 22.74 ± 2.71 mg/dL | Creatinine [2, 5]: 1.81 ± 0.27 mg/dL | HbA1c [2, 5]: 9.65 ± 1.51 % | Total Protein [2, 5]: 6.62 ± 0.49 gm/dl | Urea [2, 5]: 21.26 ± 2.41 mg/dL | AVERAGE FOOD INTAKE [3, 6]: 12.13 g | AVERAGE WATER INTAKE [3, 6]: 23.71 mL | Body Weight [3, 6]: 208.33 ± 6.15 g | AVERAGE FOOD INTAKE [3, 7]: 12.45 g | AVERAGE WATER INTAKE [3, 7]: 24.86 mL | Body Weight [3, 7]: 211 ± 7.38 g | AVERAGE FOOD INTAKE [3, 8]: 14.00 g | AVERAGE WATER INTAKE [3, 8]: 21.12 mL | Body Weight [3, 8]: 199.5 ± 7.69 g | AVERAGE FOOD INTAKE [3, 9]: 14.45 g | AVERAGE WATER INTAKE [3, 9]: 21.11 mL | Body Weight [3, 9]: 203.17 ± 7.47 g | AVERAGE FOOD INTAKE [3, 10]: 12.54 g | AVERAGE WATER INTAKE [3, 10]: 21.67 mL | Body Weight [3, 10]: 197.83 ± 8.06 g | AVERAGE FOOD INTAKE [3, 11]: 12.00 g | AVERAGE WATER INTAKE [3, 11]: 21.89 mL | Body Weight [3, 11]: 201.17 ± 8.52 g | AVERAGE FOOD INTAKE [3, 12]: 13.05 g | AVERAGE WATER INTAKE [3, 12]: 25.17 mL | Body Weight [3, 12]: 196.33 ± 8.36 g | AVERAGE FOOD INTAKE [3, 13]: 13.26 g | AVERAGE WATER INTAKE [3, 13]: 26.00 mL | Body Weight [3, 13]: 199.83 ± 8.35 g | AVERAGE FOOD INTAKE [3, 14]: 14.25 g | AVERAGE WATER INTAKE [3, 14]: 25.19 mL | Body Weight [3, 14]: 193.83 ± 8.13 g | AVERAGE FOOD INTAKE [3, 15]: 14.00 g | AVERAGE WATER INTAKE [3, 15]: 25.12 mL | Body Weight [3, 15]: 198 ± 8.74 g

From patent US20140128402A1, “PHARMACEUTICAL COMBINATION” (IPCA Laboratories Limited, priority 2011, published 2014)
